The subject of this experiment is TEAD-dependent transcription. Briefly: TEAD-dependent transcription cell-based reporter assay (MSTO-211H+12XGTIIC luciferase). As to conditions: Homo sapiens; MSTO-211H+12XGTIIC cell line, luciferase signal normalized to cell viability, 24 hours compound incubation; read-out: MSTO-211H GMean IC50 (uM) Cell Assay Reporter Cell Variant: TEAD. Further details: species or system human. The method in brief: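 MSTO-211H mesothelioma cells stably carrying a 12xGTIIC TEAD-response-element luciferase reporter, treated with serial compound dilutions for 24 h at 37 °C. Luminescence normalized to CellTiter-Fluor viability signal; % inhibition versus DMSO and 20 μM K-975 controls, IC50 by nonlinear regression.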
For orientation: A reporter such as luciferase makes a cellular process visible.
Broadly, the IC50 is the midpoint of a concentration-inhibition curve. Turning to `CS(=O)(=O)CCCC(=O)N1CCc2ccc(Oc3ccc(C(F)(F)F)cc3)cc2C1` [P-0052, 4-(methylsulfonyl)-1-(7-(4-(trifluoromethyl)phen-oxy)-3,4-dihydroisoquin-olin-2(1H)-yl)butan-1-one], the IC50 lay within 0.001 to 10 µM.

On to `CS(=O)(=O)CCC(=O)N1CCc2ccc(Oc3ccc(C(F)(F)F)cc3)cc2C1C1CCC(C(F)(F)F)CC1` (stereo not shown) [P-0212, 3-(methylsulfonyl)-1-(1-(4-(trifluoromethyl)-cyclohexyl)-7-(4-(trifluoromethyl)phen-oxy)-3,4-dihydroisoquin-olin-2(1H)-yl)propan-1-one], for which the IC50 lay in the range of 0.001 to 10 µM.

In the case of `CN(C)CCCC(=O)N1CCc2ccc(Oc3ccc(C(F)(F)F)c(F)c3)cc2C1` [P-0110, 4-(dimethylamino)-1-(7-(3-fluoro-4-(trifluoro-methyl)phenoxy)-3,4-dihydroisoquinolin-2(1H)-yl)butan-1-one], the IC50 lay within 0.001 to 10 µM.

For the compound `O=C1N[C@@H](CC(=O)N2CCc3ccc(Oc4ccc(C(F)(F)F)c(F)c4)cc3C2)CO1` [P-0140, (S)-4-(2-(7-(3-fluoro-4-(trifluoromethyl)phen-oxy)-3,4-dihydroisoquin-olin-2(1H)-yl)-2-oxoeth-yl)oxazolidin-2-one], the IC50 was 0.001 to 10 µM.

As to `NC(=O)NCC(=O)N1CCc2c(cccc2Oc2ccc(C(F)(F)F)cc2)C1` [P-0270, 1-(2-oxo-2-(5-(4-(trifluoromethyl)phen-oxy)-3,4-dihydroisoquin-olin-2(1H)-yl)ethyl)urea], the IC50 is 0.001 to 10 µM.

In the case of `CC(=O)N1CCC(C2c3cc(Oc4ccc(C(F)(F)F)cc4)ccc3CCN2C(=O)CCS(C)(=O)=O)C1` (stereo not shown) [P-0203, 1-(1-(1-acetylpyrrolidin-3-yl)-7-(4-(trifluorometh-yl)phenoxy)-3,4-dihydro-isoquinolin-2(1H)-yl)-3-(methylsulfonyl)-propan-1-one], the IC50 lay in the range of 0.001 to 10 µM.

For `Nc1nccc(C(=O)N2CCc3ccc(Oc4ccc(C(F)(F)F)cc4)cc3C2)n1` [P-0092, (2-aminopyrimidin-4-yl)-(7-(4-(trifluoromethyl)-phenoxy)-3,4-dihydroiso-quinolin-2(1H)-yl)meth-anone], the IC50 lay within 0.001 to 10 µM.

Regarding `CS(=O)(=O)c1cc(C(=O)N2CCc3ccc(Oc4ccc(C(F)(F)F)cc4)cc3C2)ccn1` [P-0081, (2-(methylsulfonyl)pyr-idin-4-yl)(7-(4-(trifluoro-methyl)phenoxy)-3,4-dihydroisoquinolin-2(1H)-yl)methanone], the IC50 was 0.001 to 10 µM.

For the compound `O=C(Cc1ccn[nH]1)N1CCc2ccc(Oc3ccc(C(F)(F)F)c(F)c3)cc2C1` [P-0149, 1-(7-(3-fluoro-4-(trifluoromethyl)phen-oxy)-3,4-dihydroiso-quinolin-2(1H)-yl)-2-(1H-pyrazol-5-yl)-ethan-1-one], the IC50 fell in the range of 0.001 to 10 µM.

`O=C(Cc1c[nH]c(=O)[nH]c1=O)N1CCc2ccc(Oc3ccc(C(F)(F)F)c(F)c3)cc2C1` [P-0139, 5-(2-(7-(3-fluoro-4-(trifluoromethyl)phen-oxy)-3,4-dihydroisoquin-olin-2(1H)-yl)-2-oxoeth-yl)pyrimidine-2,4(1H, 3H)-dione]: the IC50 lay within 0.001 to 10 µM.

For the compound `CS(=O)(=O)CCC(=O)N1CCc2ccc(Oc3ccc(C(F)(F)F)cc3)cc2C1CC1CN(C(=O)CO)C1` (stereo not shown) [P-0202, 1-(1-((1-(2-hydroxyacet-yl)azetidin-3-yl)methyl)-7-(4-(trifluoromethyl)-phenoxy)-3,4-dihydro-isoquinolin-2(1H)-yl)-3-(methylsulfonyl)-propan-1-one], the 50% inhibitory concentration (IC50) was in the range of 0.001 to 10 µM.

As for `O=C(C1CCNCC1)N1CCc2ccc(Oc3ccc(C(F)(F)F)c(F)c3)cc2C1` [P-0147, (7-(3-fluoro-4-(trifluoro-methyl)phenoxy)-3,4-dihydroisoquinolin-2(1H)-yl)(piperidin-4-yl)-methanone], the IC50 lay in the range of 0.001 to 10 µM.

For the compound `O=S(=O)(N1CCCC1)N1CCc2ccc(Oc3ccc(C(F)(F)F)cc3)cc2C1` [P-0030, 2-(pyrrolidin-1-ylsulfon-yl)-7-(4-(trifluorometh-yl)phenoxy)-1,2,3,4-tetrahydroisoquinoline], the IC50 was in the range of 0.001 to 10 µM.

For the origin of these results see patent publication US20250129028A1, “COMPOUNDS AND METHODS FOR YAP/TEAD MODULATION AND INDICATIONS THEREFOR” (Opna Bio SA, priority 2022, published 2025).
